From patent US20090012088A1 (priority 2005, published 2009)
“Also recorded” adds a separate entry of the source.

Assays:
[1] = Assessment of PIP-1 levels in the brain (blood-brain-barrier penetrance); assay type: in vivo, mice; conditions: 50 mg/kg i.p.
Procedure: As a prelude to assessment of PIP-1 in a mouse model of PD, the ability of PIP-1 to penetrate the blood-brain-barrier is first assessed. PIP-1 is injected i.p. at a dose of 50 mg/kg, and mice are sacrificed at 1 and 2 h post injection. After sacrifice, to establish the presence of PIP-1 in the brain the striatum was dissected, sonicated in perchloric acid, and centrifuged. The clarified supernatant is analyzed by HPLC. No endogenous compounds interfere with this assay for PIP-1 as no signal is detected in dissected striata from non-treated mice. As shown by FIG. 21A, the striatal penetrance of PIP-1 is at the level of 70 ng/mg of protein. […] Given this blood-brain-barrier penetrance by PIP-1, the compound is assessed in the MPTP mouse model of PD. […] PIP-1 is assessed at concentrations of 0 mg/kg, 1 mg/kg, 5 mg/kg, 10 mg/kg, and 50 mg/kg, and five mice are used in each group. After 30 days, the mice are sacrificed and the striatum dissected and analyzed by HPLC to determine the levels of dopamine and various dopamine metabolites.
Assessment of PIP-1 levels in the brain: PIP-1 was injected into mice i.p. at 50 mg/kg and were sacrificed at 1 and 2 h post injection. […] The clarified supernatant was then injected into an HPLC and the concentration of PIP-1 was determined by comparison to a standard curve. […]

[2] = system: MPTP-treated C57 Black mice; assay: MPTP mouse model of PD, striatal monoamine levels; assay type: in vivo
Procedure: As a prelude to assessment of PIP-1 in a mouse model of PD, the ability of PIP-1 to penetrate the blood-brain-barrier is first assessed. PIP-1 is injected i.p. at a dose of 50 mg/kg, and mice are sacrificed at 1 and 2 h post injection. After sacrifice, to establish the presence of PIP-1 in the brain the striatum was dissected, sonicated in perchloric acid, and centrifuged. The clarified supernatant is analyzed by HPLC. No endogenous compounds interfere with this assay for PIP-1 as no signal is detected in dissected striata from non-treated mice. As shown by FIG. 21A, the striatal penetrance of PIP-1 is at the level of 70 ng/mg of protein. […] Given this blood-brain-barrier penetrance by PIP-1, the compound is assessed in the MPTP mouse model of PD. Mice are given a one-time i.p. injection of PIP-1 followed 30 minutes later by an injection of MPTP (30 mg/kg). PIP-1 is assessed at concentrations of 0 mg/kg, 1 mg/kg, 5 mg/kg, 10 mg/kg, and 50 mg/kg, and five mice are used in each group. After 30 days, the mice are sacrificed and the striatum dissected and analyzed by HPLC to determine the levels of dopamine and various dopamine metabolites. […]

[3] = system: differentiated PC-12 and SK-N-SH cells; assay: Cellular toxicity in differentiated PC-12 and SK-N-SH cells; assay type: cell-based; conditions: at concentrations up to 100 μM
Procedure: In vivo MPTP is metabolized to its active form, the 1-methyl-4-phenylpyridinium ion (MPP^+), and MPP^+ has proven very useful in a variety of cell culture models of PD. To determine the protective effect of PIP-1 on cells subjected to MPP^+ insult, PC-12 (differentiated as above) and SK-N-SH (differentiated with retinoic acid for 12 days) cells are treated with 10 μM MPP^+ and a range of PIP-1 concentrations, and cell death is assessed by propidium iodide staining and flow cytometry. […] As shown in FIGS. 20A and 20B, PIP-1 also protects differentiated PC-12 and SK-N-SH cells from rotenone-induced toxicity as well.
Protection of Rotenone and MPP^+ induced toxicity in PC-12 and SK-N-SH cells: SK-N-SH and PC-12 cells are neuronally differentiated as described above. 10 μM rotenone, 10 μM MPP^+ and various concentrations of PIP-1 or its derivatives are added to the cells and incubated for 72 h. The cells are then washed in PBS and the viability is determined by adding propidium iodide to 1 μg/mL and measuring the fluorescent intensity of each cell by flow cytometry.

CN(C)c1cnn(-c2ccccc2)c(=O)c1N [PIP-1, 4-Amino-5-dimethylamino-2-phenyl-2H-pyridazin-3-one]
Striatal penetrance of PIP-1 ([1]; mice, 1 and 2 h post injection, striatum): 70 ng/mg of protein
PIP-1 in peripheral blood ([1]; same time points): no detectable PIP-1
Striatal levels of dopamine and dopamine metabolites (DOPAC, HVA) in MPTP-treated mice ([2]; 50 mg/kg PIP-1 i.p. 30 min before MPTP 30 mg/kg, after 30 days): very similar to the control mice
Effect of PIP-1 by itself on levels of dopamine or dopamine metabolites ([2]; mice, without MPTP): does not appear to have any adverse effects
Cellular toxicity / adverse effects on differentiated neurons [3]: no adverse effects; also recorded: no cellular toxicity
